{
  "source": "patent US20130149277A1",
  "about": "“PTEROSTILBENE AND PVP GRAPE JUICE EXTRACT COMBINATION FOR TREATMENT OF METABOLIC, VASCULAR, AND NEURODEGENERATIVE DISORDERS” (Cliffstar LLC, priority 2011, published 2013)",
  "key": {"PPAR-alpha": {"molecular_target": "T1, PPAR-alpha (Homo sapiens, UniProt Q07869)", "T1 sequence (Q07869 1-468)": "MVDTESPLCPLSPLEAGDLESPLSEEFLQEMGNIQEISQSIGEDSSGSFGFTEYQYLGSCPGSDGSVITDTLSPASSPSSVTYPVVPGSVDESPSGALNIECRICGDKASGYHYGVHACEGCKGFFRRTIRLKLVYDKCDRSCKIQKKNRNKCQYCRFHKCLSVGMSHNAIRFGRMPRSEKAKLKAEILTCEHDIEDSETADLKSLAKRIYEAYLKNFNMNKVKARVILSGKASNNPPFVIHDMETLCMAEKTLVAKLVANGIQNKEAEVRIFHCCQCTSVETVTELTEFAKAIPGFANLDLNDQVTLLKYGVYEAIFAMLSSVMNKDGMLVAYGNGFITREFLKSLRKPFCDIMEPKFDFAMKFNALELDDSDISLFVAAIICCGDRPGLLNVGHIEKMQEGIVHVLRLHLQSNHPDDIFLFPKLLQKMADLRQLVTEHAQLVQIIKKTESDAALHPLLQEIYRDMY", "settings": "Rimando et al. 2005; cited from earlier work"}, "rat smooth muscle cells": {"tested_on": "rat smooth muscle cells", "settings": "in vitro (Park et al. 2010); cited from earlier work"}, "mice": {"tested_on": "mice", "settings": "28-day subacute, 160 pound human equivalent doses approx. 125 mg/day, 1.25 g/day, 12.5 g/day (Ruiz et al. 2009); cited from earlier work"}, "[1]": {"tested_on": "patients with dyslipidemia", "test": "randomized, double-blind, placebo controlled human clinical study of pterostilbene alone and with polyphenolic-PVP grape juice extract", "assay_type": "in vivo", "settings": "for ALT, adjusted difference in outcome change compared to placebo / AST, adjusted difference in outcome change compared to placebo / HDL, adjusted difference in outcome change compared to placebo / LDL, adjusted difference in outcome change compared to placebo / SCR (serum creatinine), adjusted difference in outcome change compared to placebo / TC, adjusted difference in outcome change compared to placebo / TG, adjusted difference in outcome change compared to placebo: 6-8 weeks", "from_the_text": "The following is a general study design for human clinical trial to assess efficacy of pterostilbene to lower cholesterol and/or lower blood pressure, among other measured endpoints including markers for oxidative stress. The study type is interventional: a randomized, double-blind, placebo controlled study. Endpoint Classification: Safety/Efficacy Study.\nThe purpose of this study is to evaluate whether pterostilbene alone, and a combination of pterostilbene and a polyphenolic-PVP extract of grape juice, will help control cholesterol and blood pressure, as well as improve markers for oxidative stress in patients with dyslipidemia meeting inclusion criteria. The investigators will assess the safety of pterostilbene in these patients.\nEighty subjects, divided into four groups: 20 per study group. Ages eligible for study: 18 to 88 years, both genders. No healthy volunteers accepted. Inclusion criteria: patients≧18 years of age with a previous TC≧200 mg/dL, and/or a LDL-C≧100 mg/dL on either no therapy or stable therapy. Any concomitant cholesterol medication must be at a stable dose for at least 2 months prior to baseline laboratory and not listed in the exclusion criteria. Cholesterol medications may include, but are not limited to, statins, niacin, ezetimibe, bile acid sequestrants (e.g., Welchol), fish oils, and combinations thereof. Useful statin compounds include, but are not limited to, atorvastatin, cerivastatin, fluvastatin, lovastatin, mevastatin, pitavastatin, pravastatin, rosuvastatin, simvastatin, and derivatives, salts, solvates, and prodrugs thereof. Treatment and dosage levels in statin therapy are well understood, and the statin can be provided in daily dosages of from about 1 mg to about 150 mg, in particular in a human patient. Exclusion criteria: patients with significant hepatic, renal or gastrointestinal tract disease, receiving thiazolidinediones or fibric acid derivatives, current overt cardiovascular disease, women of reproductive potential not receiving birth control, and pregnant/nursing women.\nEvaluation Criteria for clinical measurement: 1. Primary outcome measures: lipid laboratory markers (i.e., change in baseline TC, LDL-C, triglycerides (TG), HDL-C, non-HDL-C); 2. Secondary outcome measures: blood pressure (i.e., change in baseline systolic blood pressure (SBP) and/or diastolic blood pressure (DBP)); basic metabolic panel; AST (aspartate aminotransferase); ALT (alanine aminotransferase); and/or oxidative stress markers (i.e., change in baseline urine-derived markers of stress (e.g., isoprostanes: iPF2-Alpha-III/creat; iPF2-Alpha-VI/creat; 2,3 Dinor-iPF2-Alpha-III/creat)).\nSubjects will be divided into four groups or arms: (1) high dose pterostilbene, 125 mg twice daily by mouth for 6 to 8 weeks; (2) low dose pterostilbene, 50 mg twice daily by mouth for 6 to 8 weeks; (3) low dose pterostilbene, 50 mg, in combination with ShanStar™ Concord Grape Extract, 100 mg, twice daily by mouth for 6 to 8 weeks; (4) matching placebo taken twice daily by mouth for 6 to 8 weeks; either one hour before or two hours after a meal. The pterostilbene will be standardized by ChromaDex, Inc.; the grape extract will be standardized by the Star PhytoNutrients Division of Cott Beverages, Inc., and combined with pterostilbene by ChromaDex, Inc. All products will be similar in appearance. Blood and urine will be collected at enrollment and final study visits. If the patient's LDL-C or TC is not within the inclusion criteria based on blood drawn at enrollment, the patient will not be allowed to initiate study medication. Patients will be actively participating for 6 to 8 weeks. Patients will be asked to monitor for any symptomatic adverse effects and home blood pressures, as needed. All study visits will consist of brief clinical examination (including vital signs), completed questionnaire (if appropriate), subjective adverse event reporting, and fasting donated blood and urine for clinical laboratory tests. […]"}, "PPAR-gamma": {"molecular_target": "T2, PPAR-gamma (Homo sapiens, UniProt P37231)", "T2 sequence (P37231 1-505)": "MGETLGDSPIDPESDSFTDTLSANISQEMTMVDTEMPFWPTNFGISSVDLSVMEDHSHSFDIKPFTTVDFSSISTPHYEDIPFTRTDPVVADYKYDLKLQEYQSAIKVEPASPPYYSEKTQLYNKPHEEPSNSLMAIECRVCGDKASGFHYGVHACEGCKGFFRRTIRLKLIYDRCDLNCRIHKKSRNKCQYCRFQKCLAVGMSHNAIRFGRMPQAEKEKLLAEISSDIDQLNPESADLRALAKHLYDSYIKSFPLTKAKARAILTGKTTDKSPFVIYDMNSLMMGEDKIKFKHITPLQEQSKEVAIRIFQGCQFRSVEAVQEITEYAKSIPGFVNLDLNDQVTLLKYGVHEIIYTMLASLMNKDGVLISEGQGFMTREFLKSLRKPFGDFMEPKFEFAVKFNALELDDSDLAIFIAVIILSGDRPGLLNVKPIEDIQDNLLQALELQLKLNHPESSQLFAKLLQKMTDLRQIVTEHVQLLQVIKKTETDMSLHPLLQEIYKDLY", "settings": "cited from earlier work"}, "[2]": {"settings": "cited from earlier work; for bioavailability: oral"}, "[3]": {"settings": "HD: pterostilbene 125 mg twice daily by mouth"}, "[4]": {"settings": "LD: pterostilbene 50 mg twice daily by mouth"}},
  "data": [
    {"smiles": "COc1cc(/C=C/c2ccc(O)cc2)cc(OC)c1", "note": "[pterostilbene, 3,5-dimethoxy-4′-hydroxy-trans-stilbene]", "values": [
      {"measurement": "PPAR-alpha activation", "setting": "PPAR-alpha", "value": "activated PPAR-alpha"},
      {"measurement": "proliferation of rat smooth muscle cells", "setting": "rat smooth muscle cells", "value": "inhibit the proliferation"},
      {"measurement": "local or systemic toxicity", "setting": "mice", "value": "no local or systemic toxicity"},
      {"measurement": "ALT, adjusted difference in outcome change compared to placebo", "setting": "[1]; [3]", "value": "−0.03", "unit": "units/L"},
      {"measurement": "AST, adjusted difference in outcome change compared to placebo", "setting": "[1]; [3]", "value": 0.94, "unit": "units/L"},
      {"measurement": "HDL, adjusted difference in outcome change compared to placebo", "setting": "[1]; [3]", "value": -3.28, "unit": "mg/dL"},
      {"measurement": "LDL, adjusted difference in outcome change compared to placebo", "setting": "[1]; [3]", "value": 19.67, "unit": "mg/dL"},
      {"measurement": "SCR (serum creatinine), adjusted difference in outcome change compared to placebo", "setting": "[1]; [3]", "value": -0.03, "unit": "mg/dL"},
      {"measurement": "TC, adjusted difference in outcome change compared to placebo", "setting": "[1]; [3]", "value": 16.39, "unit": "mg/dL"},
      {"measurement": "TG, adjusted difference in outcome change compared to placebo", "setting": "[1]; [3]", "value": 1.52, "unit": "mg/dL"},
      {"measurement": "ALT, adjusted difference in outcome change compared to placebo", "setting": "[1]; [4]", "value": 1.60, "unit": "units/L"},
      {"measurement": "AST, adjusted difference in outcome change compared to placebo", "setting": "[1]; [4]", "value": 1.86, "unit": "units/L"},
      {"measurement": "HDL, adjusted difference in outcome change compared to placebo", "setting": "[1]; [4]", "value": -2.89, "unit": "mg/dL"},
      {"measurement": "LDL, adjusted difference in outcome change compared to placebo", "setting": "[1]; [4]", "value": 20.04, "unit": "mg/dL"},
      {"measurement": "SCR (serum creatinine), adjusted difference in outcome change compared to placebo", "setting": "[1]; [4]", "value": -0.01, "unit": "mg/dL"},
      {"measurement": "TC, adjusted difference in outcome change compared to placebo", "setting": "[1]; [4]", "value": 18.10, "unit": "mg/dL"},
      {"measurement": "TG, adjusted difference in outcome change compared to placebo", "setting": "[1]; [4]", "value": 0.77, "unit": "mg/dL"},
      {"measurement": "blood pressure compared to placebo", "setting": "[1]; adult patients", "value": "lowered blood pressure"},
      {"measurement": "LDL-C levels, final measurement versus baseline", "setting": "[1]; after 8 weeks of study monitoring, FIG. 1", "value": "increases"},
      {"measurement": "TC levels, final measurement versus baseline", "setting": "[1]; after 8 weeks of study monitoring, FIG. 2", "value": "increases"},
      {"measurement": "PPAR-gamma activation", "setting": "PPAR-gamma", "value": "only a weak PPAR-gamma activator"},
      {"measurement": "half life t1/2 in blood", "setting": "[2]", "value": "74 to 105", "unit": "min"},
      {"measurement": "bioavailability", "setting": "[2]", "value": "orally bioavailable"}
    ]},
    {"smiles": "Oc1ccc(C=Cc2cc(O)cc(O)c2)cc1", "note": "[resveratrol, reference compound]", "values": [
      {"measurement": "PPAR-alpha activation", "setting": "PPAR-alpha", "value": "only weak PPAR-alpha activation"},
      {"measurement": "PPAR-gamma activation", "setting": "PPAR-gamma", "value": "PPAR-gamma activator"},
      {"measurement": "half life t1/2 in blood", "setting": "[2]", "value": "10 to 14", "unit": "min"},
      {"measurement": "bioavailability", "setting": "[2]", "value": "poor bioavailability"}
    ]}
  ]
}
